Results reported in patent US20030059511A1, “Sweetener compositions and uses thereof” (AJINOMOTO CO., INC., priority 1999, published 2003).

Columns and labels:
Format in all cases: in vivo, human
[1] = Equivalent concentration of bitter taste, sensory evaluation, arginine solution (Example 28); conditions: 2% arginine solution; addition 4.4 ppm; as concentration of anhydrous caffeine; 10 panelists; no addition 0.131
Protocol: (§1) With respect to the solution produced by adding derivative 1 (the product of the present invention), or adding nothing (no addition; the reference product) in the concentration shown in the following table 4 to the amino acid solution (2% solution of arginine by weight), the sensory evaluation was performed (using 10 panelists), and the equivalent concentration of bitter taste was determined. The results were shown in the table 4, wherein the equivalent concentration of bitter taste was shown in the concentration of aqueous solution of anhydrous caffeine which is a substance of bitter taste.

[2] = Taste characteristics in an aqueous solution (9 items, similarity index vs aqueous 10% sucrose solution); conditions: PSE 10%, smaller = closer to sucrose, 8 panelists
Protocol: The following experiments were performed using the water obtained by ion exchanging and further distilling the water.
An aqueous solution of each of derivatives 1 to 9 having a sweetness level equivalent to that of PSE 10% was prepared, and compared with aqueous 10% sucrose solution with respect to the following 9 items, i.e., “onset of the taste”, “round taste”, “clear taste”, “lingering taste”, “peculiar taste”, “heavy taste”, “bitter taste”, “astringent taste” and “irritation”. The results were determined as 5 levels (−2 point: very weak, −1 point: a little weak, 0 point: same, +1 point: a little strong, +2 point: very strong) by 8 panelists, and the average points were calculated. The sample solutions of the derivatives equivalent to PSE 10%, were prepared by using the magnification of sweetness intensity measured in Example 1, and the amounts of each derivatives to be used were as follows.
Next, the total of the absolute value of the deviation from sucrose in each of the evaluation items consisting of the onset of the taste, the round taste, the clear taste, the lingering taste, the peculiar taste, the heavy taste, the bitter taste, the astringent taste and the irritation was divided by 9 (total number of items) to calculate the similarity (which is referred to as “similarity index”). The smaller the similarity index becomes, the better the taste balances, and the closer the taste is to the taste characteristics (quality) of sucrose. The total taste becomes preferable. The similarity indexes of each derivatives are shown as follows.
To the aqueous solution of derivative 1 having a sweetness level equivalent to that of PSE 10%, salt was added as final concentratins of 0.1%, 0.2% and 0.5% to compare with the aqueous solution of 10% sucrose for by 2 points comparison method (n=8) and evaluate the characteristics of the taste.
The sensory evaluation was performed by the same way as Example 6.
The following experiments were conducted using the water obtained by ion exchanging and further distilling tap water.
An aqueous solution of each of derivatives 1 to 9 having a sweetness level equivalent to that of PES 10% was prepared, and compared with aqueous 10% sucrose solution with respect to 9 items, namely, “the onset of the taste”, “round taste”, “clear taste”, “lingering taste”, “peculiar taste”, “heavy taste”, “bitter taste”, “astringent taste” and “irritation”. The results were determined as 5 levels (−2 point: very weak, −1 point: a little weak, 0 point: same, +1 point: a little strong, +2 point: very strong) by 8 panelists, and the average points were calculated.
Next, the total of the absolute value of the deviation from sucrose in each of the evaluation items consisting of onset of the taste, round taste, clear taste, lingering taste, peculiar taste, heavy taste, bitter taste, astringent taste and irritation was divided by 9 (total number of items) to calculate the similarity (which is refer to as “similarity index”). The smaller the similarity index becomes, the better the taste balances, and the closer the taste is to the taste characteristics (quality) of sucrose. The total taste becomes preferable. The similarity indexes of each of the derivatives are shown as follows.

[3] = Magnification of sweetness intensity in the cola drink (sensory evaluation against sucrose cola drinks); conditions: for magnification of sweetness intensity in the cola drink: vs cola drink containing 10% sucrose
Description: And the magnification of sweetness intensity in the cola drink can be also determined by the same method compared to the control solution of cola drink containing 10% sucrose.
The composition of cola drink is as follows.
As for the concentration of the references, the sucrose concentrations of previous (a) to (e) were used. In consequence, the magnification of sweetness intensity in the cola drink of derivative 1 was 22600 times, and that of derivative 2 was 4900 times.
And the magnification of sweetness intensity in the cola drink can be also determined by the same method compared to the reference solution of cola drink containing 10% sucrose.
The components of cola drink is as follows.
As for the concentration of the references, the sucrose concentrations of previous (a) to (e) were used. As the results, the magnification of sweetness intensity in the cola drink of derivative 1 was 22600 times, and that of derivative 2 was 4900 times.
And the magnification of sweetness in the cola drink can be also determined by the same method compared to the control solution of cola drink containing 10% sucrose.
As for the concentration of the references, the sucrose concentrations of previous (a) to (e) were used. As a result, the magnification of sweetness intensity in the cola drink of derivative 1 was 22600 times, and that of derivative 2 was 4900 times.

[4] = Equivalent concentration of bitter taste, sensory evaluation, mixed amino acids (Example 29); conditions: 2% mixed amino acids; addition: Derivative 2 10 ppm, Glycyrrhizin 250 ppm, Sucrose 50000 ppm; no addition 0.105
Protocol: as §1
With respect to the solution produced by adding derivative 2, Glycyrrhizin or sucrose (the product of the present invention), or adding nothing (no addition; the-reference product) to 2% (by weight) solution of the mixed amino acids (leucine:valine:isoleucine=1:0.5:0.5 by weight), the sensory evaluation was performed (using 10 panelists), and the equivalent concentration of bitter taste was determined in the same way as that described in Example 28, and shown in the table 5.

[5] = Equivalent concentration of bitter taste (Example 30), Quinine sulfate; conditions: derivative 4 2.2 ppm; Quinine sulfate 39 ppm; no addition 0.084
Protocol: as §1
(§2) With respect to the solution produced by adding derivative 4 (2.2 ppm) to each of the substances of Quinine sulfate (39 ppm), anhydrous caffeine (2000 ppm), ferrous citrate (50 ppm), calcium lactate (1500 ppm), and thiamine hydrochloride (5000 ppm) (the product of the present invention), or adding nothing thereto (no addition; the reference product) the reference product (no addition), the sensory evaluation was performed (using 10 panelists), and the equivalent concentration of bitter taste was determined in the same way as that described in Example 28, and shown in table 6.

[6] = Equivalent concentration of bitter taste (Example 30), ferrous citrate; conditions: derivative 4 2.2 ppm; ferrous citrate 50 ppm; no addition 0.027
Protocol: as §1, §2

[7] = Equivalent concentration of bitter taste (Example 30), thiamine hydrochloride; conditions: derivative 4 2.2 ppm; thiamine hydrochloride 5000 ppm; no addition 0.131
Protocol: as §1, §2

[8] = Equivalent concentration of bitter taste (Example 30), anhydrous caffeine; conditions: derivative 4 2.2 ppm; anhydrous caffeine 2000 ppm; no addition 0.205
Protocol: as §1, §2

[9] = Equivalent concentration of bitter taste (Example 30), calcium lactate; conditions: derivative 4 2.2 ppm; calcium lactate 1500 ppm; no addition 0.054
Protocol: as §1, §2

| Structure (SMILES) | Equivalent concentration of bitter taste [1] | Similarity index [2] | Amount equivalent to PSE 10% [3] | magnification of sweetness intensity in the cola drink [3] | Equivalent concentration of bitter taste [4] | Equivalent concentration of bitter taste (Amount of anhydrous caffeine g/100 g), Quinine sulfate [5] | Equivalent concentration of bitter taste (Amount of anhydrous caffeine g/100 g), Ferrous citarte [6] | Equivalent concentration of bitter taste (Amount of anhydrous caffeine g/100 g), Tiamine hydrochloride [7] | Equivalent concentration of bitter taste (Amount of anhydrous caffeine g/100 g), Caffeine (anhydrous) [8] | Equivalent concentration of bitter taste (Amount of anhydrous caffeine g/100 g), Calcium lactate [9] |
| --- | --- | --- | --- | --- | --- | --- | --- | --- | --- | --- |
| COC(=O)[C@H](Cc1ccccc1)NC(=O)[C@H](CC(=O)O)NCCCc1ccc(OC)c(O)c1 [Derivative 1, N-[N-[3-(3-hydroxy-4-methoxyphenyl)propyl] -L-α-aspartyl]-L-phenylalanine 1-methyl ester] | 0.060 g/100 g | 1.17 | 4.5 mg/1000 ml | 22600 times | – | – | – | – | – | – |
| COC(=O)[C@H](Cc1ccccc1)NC(=O)[C@H](CC(=O)O)NCCCc1ccc(OC)cc1 [Derivative 2, N-[N-[3-(4-methoxyphenyl)propyl]-L-α-aspartyl]-L-phenylalanine 1-methyl ester] | – | 0.63 | 20.4 mg/1000 ml | 4900 times | 0.051 g/100 g | – | – | – | – | – |
| COC(=O)[C@H](Cc1ccccc1)NC(=O)[C@H](CC(=O)O)NCCC(C)(C)c1ccc(O)c(C)c1 [Derivative 4, N-[N-[3-(3-methyl-4-hydroxyphenyl)-3-methylbutyl]-L-α-aspartyl]-L-phenylalanine 1-methyl ester] | – | 0.93 | 3.4 mg/1000 ml | – | – | 0.025 g/100 g | 0.020 g/100 g | 0.093 g/100 g | 0.045 g/100 g | 0.025 g/100 g |
| COC(=O)[C@H](Cc1ccccc1)NC(=O)[C@H](CC(=O)O)NCCC(C)(C)c1ccc(O)cc1 [Derivative 6, N-[N-[3-(4-hydroxyphenyl)-3-methylbutyl]-L-α-aspartyl]-L-phenylalanine 1-methyl ester] | – | 0.93 | 7.1 mg/1000 ml | – | – | – | – | – | – | – |
| COC(=O)[C@H](Cc1ccccc1)NC(=O)[C@H](CC(=O)O)NCCCc1ccc(O)c(C)c1 [Derivative 8, N-[N-[3-(3-methyl-4-hydroxyphenyl)propyl]-L-α-aspartyl]-L-phenylalanine 1-methyl ester] | – | 0.77 | 6.3 mg/1000 ml | – | – | – | – | – | – | – |
